For test [1] the following is noted: FDA approved treatment of IPF patients; cited from earlier work.
The subject of test [2] is CCR10+ IPF Cell-Induced Fibrosis in NSG Mice. In words: Humanized NSG mouse model of IPF: BIBF1120 from day 35 (Masson's trichrome, hydroxyproline, flow cytometry). The class given is in vivo. As to conditions: for modulation of fibrosis in humanized NSG model of IPF: therapeutic treatment from day 35. The procedure:
IPF cells were injected intravenously into NSG mice and beginning at day 35 after injection mice were treated either with a solutol vehicle or 60 mg/kg BIBF-1120 solubilized in solutol for 5 days a week over 4 weeks. (A-C) Depicted are representative images of Masson's Trichrome staining of non-humanized (A) and humanized NSG mice that received solutol (B) or BIBF-1120 (C). (D) Depicted is the hydroxyproline in the lungs of non-humanized or humanized NSG mice that received solutol or BIBF-1120. Data are mean±s.e.m.; n=5-10/group. (E-F) Solutol- or BIBF1120-treated NSG humanized mouse lungs were analyzed by flow cytometry for human CD45, EpCAM and/or CCR10 expression. Depicted is the average number of CD45^+ CCR10^+ (E) and Lin^− CCR10^+ (F) cells in humanized NSG mice treated with solutol or BIBF1120. Data are mean±s.e.m.; n=5-10/group. p values indicated
Six to eight-week old, female, pathogen free NOD Cg-Prkdc^SCID IL2rg^Tm1wil Szi (NSG) or NOD.Cg-Prkdc^SCID IL2rg^tm1Wil Tg(CAG-EGFP) 10sb/SzJ (NSG-GFP) were purchased from Jackson Laboratories and housed in Cedars-Sinai Medical Center's high isolation animal rooms. NSG mice were allowed a minimum of one week to acclimate in the facility and then these mice either received nothing (i.e., non-humanized) 1×10^6 IPF cells by intravenous injection (i.e. humanized). In most in vivo experiments, the IPF cells used were removed from liquid N2 storage, rapidly thawed, and washed in serum-free medium prior to injection into NSG mice. Humanized NSG mice received KB004 (i.e., anti-EphA3 mAb supplied by Kalobios; 5 mg/kg) or KB243 (i.e., appropriate IgG control supplied by Kalobios; 5 mg/kg) either from days 0 to 35 or from days 35 to 63 by intraperitoneal injection twice weekly. […] Other groups of humanized NSG mice received either vehicle (i.e., solutol) or BIBF1120 (Cayman Chemicals) by oral gavage beginning at day 35 after IPF cell injection. Vehicle or drug was administered 5 days a week until day 63 after IPF cell injection. All NSG groups were monitored daily and mice were sacrificed if there is evidence for morbidity such as weight loss of more than 20%, loss of fur, paralysis and/or lack of responsiveness when handled.
Murine lung cellular suspensions were generated using a mouse lung dissociation kit, C-tubes, and a GentleMacs dissociator (Miltenyi Biotech). Spleens were dissociated using a sterile rubber tip of 1 ml syringe plunger and 100 μm 50 ml tube filters (BD bioscience) as follows: isolated spleens were placed in 1 ml of sterile complete medium until all the samples were collected. Sterile 50 ml conical tube filters were placed on top of sterile 50 ml conical tubes and were equilibrated by pipetting 1 ml of calcium and magnesium free DPBS (DBPS; Cellgro) through the filters. Spleens were transferred to a sterile 50 ml filter, cellular suspensions were generated using a sterile rubber tip of a syringe plunger, and splenic material was flushed with 5 ml of DPBS. Lung and splenic cell suspensions were centrifuged and resuspended in 1 ml of RBC lysis buffer (Biolegend), incubated at room temperature for 1-2 min and then equilibrated by adding 25 ml of DPBS to each tube. Cells were centrifuged and resuspended in flow cytometric wash/staining buffer (DPBS+2% FBS) in the presence of human and mouse Fc receptor blocking antibodies (Biolegend). Cells were then stained with anti-human-CD45, -EpCAM and -CCR10 antibodies for 20 min at 4° C. Unstained, isotype controls, fluorescent minus one controls and staining in non-humanized murine lung and spleen suspensions were utilized to gate out any non-specific antibody binding and background fluorescence. CCR10 antibodies were validated via the enrichment for CCR10 transcripts in magnetically sorted CCR10^+ cells versus non-sorted normal and IPF explant cells (FIG. 35). […]
(In general: A flow cytometer gives signals particle by particle.)

For test [3], the system named is normal and IPF lung fibroblasts. Nature of the test: Soluble collagen 1 ELISA of lung fibroblast conditioned supernatants. Format: cell-based, human. The procedure:
Lung fibroblasts (5000/well) were plated into a 96 well plate and incubated overnight. After incubation, cells were stimulated with 20 ng/ml of IL1β or vehicle in the presence or absence of 20 μg/ml of EphA3-Fc or IgG antibodies (supplied by Kalobios) for 24 and 72 h. After stimulation, conditioned supernatants were collected and the cells were washed and fixed with 4% paraformaldehyde solution in PBS for 10 min at room temperature.
Lung fibroblast conditioned supernatants were diluted 1:5 in DPBS. Purified Collagen 1 (STEMCELL Technologies Inc), diluted in 1:5 DBPS diluted complete medium, was utilized to generate an 8-point collagen 1 standard ranging from 200-0 ng/ml. Fifty microliters of the supernatants and standards were coated onto multisorb 96 well plates (Thermo Fisher Scientific) overnight at 4° C. After coating, the plates were washed and blocked with 200 μl of 3% BSA solution in DPBS (Lonza) for 1 h at room temperature on an orbital shaker. After blocking, plates were washed and 50 μl of 200 ng/ml biotin-conjugated anti collagen-1 antibody (Abcam Ab24821) was added to each well and the plates were incubated for 2 h at room temperature on an orbital shaker. […] Data were acquired by reading the absorbance at 405 nm using a Synergy H1 microplate reader (BioTek Instruments Inc.). […]
For orientation: In an ELISA, binding on a coated surface is turned into a signal by an enzyme label.

For test [4] the test system is unchanged. In words: Flow cytometry for cell surface EphA3 expression on stimulated lung fibroblasts. The class given is cell-based, human. As to conditions: 20 ng/ml; twenty-four hours after stimulation. The procedure: IPF surgical lung biopsy samples were obtained. IPF lung fibroblasts were generated by mechanically dissociating IPF lung biopsies or explants into sterile tissue culture plates. After mechanical dissociation, tissues were passed through a 25-ml pipette for 10 times, in DMEM (Lonza)+15% FBS (Cell Generation), 100 IU penicillin and 100 μg/ml streptomycin (Mediatech), 292 μg/ml L-Glutamine (Mediatech) and 100 μg/ml of Primocin (Invivogen) (complete medium). Cells were cultured at 37° C. and 10% CO2, medium was changed twice a week by careful removal of the liquid and retaining the minced tissues. This process was repeated for 1-2 weeks, until stromal colonies were apparent, after which fibroblast colonies were trypsinized and passaged. After 4-5 passages, fibroblast purity was confirmed using flow cytometry and/or qPCR analysis for CD45, EpCAM and CD31. Fibroblasts were then cultured in complete medium; fresh medium was added to the fibroblasts every 2-3 days and the cells were passaged when they were 70-90% confluent. […] After treatment, cells were then analyzed by flow cytometry for cell surface EphA3 expression.
Lung fibroblasts were plated and treated as described above. […] Flow cytometric data were acquired using a MACSQuant 10 (Miltenyi Biotech) flow cytometer and data were analyzed using Flowjo software V10.2 (freest& Inc.).

For test [5] the test system is unchanged. Nature of the test: In cell αSMA ELISA in lung fibroblasts. Format: cell-based, human. As to conditions: CCL28; data not shown. The procedure:
Lung fibroblasts (5000/well) were plated into a 96 well plate and incubated overnight. […] After stimulation, conditioned supernatants were collected and the cells were washed and fixed with 4% paraformaldehyde solution in PBS for 10 min at room temperature.
After fixation, cells were washed and permeabilized with 0.5% Triton X-100 in DPBS for 10 min, washed and endogenous peroxidase activity was blocked by adding a solution of 0.3% H2O2 in DPBS to the cells and incubating the cells with the solution for 20 min at room temperature. Cells were then washed and wells were blocked with a 1% BSA solution in DPBS for 30 min at room temperature. After blocking, cells were incubated with 500 ng/ml of anti-czSMA antibodies (Clone 1A4, Abcam) overnight at 4° C. on a rocker. […] The reaction was then stopped by adding 50 μl of 2N sulfuric acid and data were acquired by reading the absorbance at […] using a Synergy H1 microplate reader (BioTek Instruments Inc.). […] Data were acquired by reading the absorbance at 595 nm using a Synergy H1 microplate reader (BioTek Instruments Inc.). Ratios were generated from αSMA/β-tubulin absorbance data and the results were normalized to vehicle. The fold change after 24 and 72 h relative to vehicle was then determined and depicted in the figures.

For test [6], the system named is lung fibroblast. In words: Lung fibroblast invasiveness (not shown). Format: cell-based, human. As to conditions: CCL28; data not shown.
[7] abbreviates: 60 mg/kg from day 35, day 63, flow cytometry.

For the molecule `Cc1ccc(=O)n(-c2ccccc2)c1` [ESBRIET, Pirfenidone], the “disease progression in IPF patients” value in test [1] is “effective at slowing down, but not halting, disease progression”.

Regarding `COC(=O)c1ccc2c(c1)NC(=O)/C2=C(\Nc1ccc(N(C)C(=O)CN2CCN(C)CC2)cc1)c1ccccc1` [BIBF1120, Nintedanib], the “lung hydroxyproline compared with non-humanized NSG lungs” value in test [2] (60 mg/kg from day 35, day 63) is recorded as “elevated”. Also, in test [2] (setting [7]), the “CD45+ CCR10+ cells in NSG lungs compared with vehicle-treated group” value was “greater” and the “Lin- CCR10+ cells in NSG lungs compared with vehicle-treated group” value is recorded as “greater”. Further, in test [2] (60 mg/kg in solutol from day 35, lungs at day 63 after IPF cell injection), the “lung fibrosis (Masson's trichrome staining)” value is listed as “showed lung fibrosis”. In test [2], the “modulation of fibrosis in humanized NSG model of IPF” value is “ineffective at modulating fibrosis”. In addition, the “modulation of fibrosis in humanized NSG model of IPF” value in test [2] (listed as nintedanib) is “did not therapeutically modulate fibrosis”. Also, in test [1], the “disease progression in IPF patients” value is “effective at slowing down, but not halting, disease progression”.

Take “IL1β: cytokine Interleukin 1 beta used to stimulate lung fibroblasts (R&D systems) [reference compound]”: the “collagen 1 in normal and IPF lung fibroblasts” value in test [3] (IL1β 20 ng/ml, after 24 and, to a lesser extent, 72 h) is “induced”. Further, the “surface EphA3 on normal and IPF lung fibroblasts” value in test [4] is on record as “significantly unregulated”.

B1: CCL28: chemokine, CCR10 ligand (protein, UniProt Q9NRJ3 20-127, looked up)
C-C motif chemokine 28: SEAILPIASSCCTEVSHHISRRLLERVNMCRIQRADGDCDLAAVILHVKRRRICVSPHNHTVKQWMKVQAAKKNGKGNVCHRKKHHGKRNSNRAHQGKHETYGHKTPY
As for B1, in test [3] (CCL28, data not shown), the “collagen 1 secretion by lung fibroblasts” value is listed as “did not consistently modulate”. Moreover, the “αSMA protein expression in lung fibroblasts” value in test [5] is listed as “did not consistently modulate”. For the same molecule, the lung fibroblast invasiveness result in test [6] is given as “did not consistently modulate”.

The values above are taken from US11397178B2, “Method of predicting progression of idiopathic pulmonary fibrosis and monitoring of therapeutic efficacy” (Cedars-Sinai Medical Center, priority 2016, dated 2022).
